Data as given in patent publication US11332470B2, “CXCR4 inhibitors and uses thereof” (X4 Pharmaceuticals, Inc., priority 2016, dated 2022).

Columns and labels:
in vitro = settings: human, Caco-2, pH 7.4
Method: The goal of this assay was to evaluate the intestinal absorption potential of drug candidates using Caco-2 cell lines.
1. Prewarm Prewarm HBSS Buffer in 37° C. water bath
2. Sonicate Take compounds from −20° C., sonicate for a few minutes (no less than 1 minute)
• Donor solution buffer: For A-to-B Direction: HBSS buffer with 0.3% DMSO and 5 μM LY: add 150 μL DMSO and 50 μL LY (5 mM) into 50 ml HBSS buffer (pH 7.4). HBSS buffer with 0.1% DMSO and 5 μM LY: add 50 μL DMSO and 50 μL LY (5 mM) into 50 mL HBSS buffer (pH 7.4). For B-to-A Direction: HBSS buffer with 0.3% DMSO: add 150 μL DMSO into 50 ml HBSS buffer (pH 7.4). HBSS buffer with 0.1% DMSO: add 50 μL DMSO into 50 ml HBSS buffer (pH 7.4). Receiver Solution Buffer: For A-to-B Direction: Prepare HBSS buffer with 0.4% DMSO: add 200 μL DMSO into 50 ml HBSS buffer (pH 7.4). For B-to-A Direction: Prepare HBSS buffer with 0.4% DMSO and 5 μM LY: add 200 μL DMSO and 50 μL LY (5 mM) into 50 ml HBSS buffer (pH 7.4).
4. Measure TEER Take cell culture plate out of incubator, wash the cell monolayers with HBSS buffer, and then measure TEER values at Rm temperature. 5. Centrifuge Centrifuge the compound solution (from step 3) at 4000 rpm for 5 min before loading to donor chambers. 6. Dosing Add solution based on the volumes listed in the following table (make sure to take extra 100 μL of donor sample for TO as Backup).
7. Apical LYT0 samples To determine LY concentration in the apical chamber, take 100 μL sample from apical chambers into an opaque plate for LYT0. 8. Prewarm Prewarm apical and basolateral plates at 37° C. for about 5 min, then begin transport by placing the apical plate onto basolateral plate. 9. Incubation Keep the plates in incubator at 37° C. for 90 min. 10.
Prepare Working Solution in MeOH/H2O (1:1)
• Prepare 1×solution: 3 μL (20×)+57 μL of 0.4% DMSO HBSS+60 μL ACN with IS (Osalmid or Imipramine)−120 μL (1×) 11. Transport termination Separate the apical plate from the basolateral plate after 90-min incubation. 12. Measure LY Take 100 μL samples from basolateral plate to an opaque plate as LYT90. 13. Measure LY concentrations for LYT0 and LYT90 by Fluorometer (at excitation of 485 nm/emission of 535 nm). 14.
Study details: Test concentration 10 μM
Test systems: Caco-2/HBSS solution
Incubation conditions: 0, 90 min at 37° C.
Sample size: Duplicates (n=2)
Bioanalytical method: LC-MS/MS
For Millicell-24 Cell Culture Plates: surface area of the membrane=0.7 cm^2, VA=0.8 mL (A-to-B) or 0.4 mL (B-to-A)
The compound numbers correspond to the compound numbers in Table 1.

[1] = biological target: T1, CXCR4 (Jurkat cells expressing CXCR4) (Homo sapiens, UniProt P61073); assay: Chemokine (CXCL12-AF647) binding inhibition assay; settings: CXCL12-AF647 25 ng/mL, read-out: IC50 CXCL-12 binding Jurkat
T1 construct: Jurkat cells expressing CXCR4; endogenous in cells; host or cells: Jurkat
T1 sequence (P61073 whole entry): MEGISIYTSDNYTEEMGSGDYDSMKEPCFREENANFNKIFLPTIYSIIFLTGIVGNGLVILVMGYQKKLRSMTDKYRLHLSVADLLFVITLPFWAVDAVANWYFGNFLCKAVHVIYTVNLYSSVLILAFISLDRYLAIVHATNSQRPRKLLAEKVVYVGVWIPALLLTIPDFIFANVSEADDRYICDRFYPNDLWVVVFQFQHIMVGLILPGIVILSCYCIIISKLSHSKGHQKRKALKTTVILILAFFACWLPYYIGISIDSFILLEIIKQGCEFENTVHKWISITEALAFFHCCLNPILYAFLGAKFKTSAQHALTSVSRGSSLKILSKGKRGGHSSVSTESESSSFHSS
Method: Chemokine (CXCL12-AF647) Binding Inhibition Assay
Jurkat cells expressing CXCR4 were washed once with assay buffer (Hanks' balanced salt solution with 20 mM HEPES buffer and 0.2% bovine serum albumin, pH 7.4) and then incubated for 15 min at room temperature with the test compounds diluted in assay buffer at dose-dependent concentrations. Subsequently, CXCL12-AF647 (25 ng/mL) was added to the compound-incubated cells. The cells were incubated for 30 min at room temperature. Thereafter, the cells were washed twice in assay buffer, fixed in 1% paraformaldehyde in PBS, and analyzed on the FL4 channel of a FACSCalibur flow cytometer equipped with a 635-nm red diode laser (Becton Dickinson, San Jose, Calif., USA).
The percentages of inhibition of CXCL12-AF647 binding were calculated according to the formula: [1−((MFI−MFINC)/(MFIPC−MFINC))]×100 where MFI is the mean fluorescence intensity of the cells incubated with CXCL12-AF647 in the presence of the inhibitor, MFINC is the mean fluorescence intensity measured in the negative control (i.e., autofluorescence of unlabeled cells), and MFIPC is the mean fluorescence intensity of the positive control (i.e., cells exposed to CXCL12-AF647 alone).

CXCR4 (U87.CXCR4 cells) = biological target: T2, CXCR4 (U87.CXCR4 cells) (Homo sapiens, UniProt P61073); assay: Intracellular CXCL-12-induced calcium mobilization assay (FLIPR); format: cell-based; settings: CXCL-12 25-50 ng/mL, read-out: IC50 CXCL-12 Ca2+ flux U87.CXCR4+
T2 construct: expressed in transfected cells; host or cells: U87 (U87.CXCR4)
T2 sequence (P61073 whole entry): as above
Method: Intracellular CXCL-12-Induced Calcium Mobilization Assay
Intracellular calcium mobilization induced by chemokines or chemokine-derived peptides were evaluated using a calcium responsive fluorescent probe and a FLIPR system. The CXCR-4 transfected U87 cell line (U87.CXCR4) cells were seeded in gelatine-coated black-wall 96-well plates at 20,000 cells per well and incubated for 12 hours. Cells were then loaded with the fluorescent calcium probe Fluo-2 acetoxymethyl at 4 μM final concentration in assay buffer (Hanks' balanced salt solution with 20 mM HEPES buffer and 0.2% bovine serum albumin, pH 7.4) for 45 min at 37° C. The intracellular calcium mobilization induced by the CXCL-12 (25-50 ng/mL) was then measured at 37° C. by monitoring the fluorescence as a function of time in all the wells simultaneously using a fluorometric imaging plate reader (FLIPR Tetra, Molecular Devices).

Row | Structure (SMILES) | Papp A→B at 90 min, 10 μM (in vitro) [×10⁻⁶ cm/s] | Papp B→A at 90 min, 10 μM (in vitro) [×10⁻⁶ cm/s] | efflux ratio at 90 min, 10 μM (in vitro) | IC50 [1] [nM] | IC50 (CXCR4 (U87.CXCR4 cells)) [nM]
1 | c1ccc(N2CCN(c3c(CN4CCCC4c4ccccn4)nc4ccccn34)CC2)cc1 (stereo not shown) [Compound I-96] | 10 to 30 | 10 to 30 | 0.1 to 10 | 100 to 1000 | ≥ 1000
2 | CN1CCN(c2cccc3nc(CN4CCCC4c4ncccc4Cl)c(F)n23)CC1 (stereo not shown) [Compound I-35] | 0.1 to 10 | 10 to 30 | 0.1 to 10 | 100 to 1000 | ≥ 1000
3 | Cc1cccnc1C1CCCN1Cc1cn2c(C3OCC(N(C)C)CO3)cccc2n1 (stereo not shown) [Compound I-99] | 0.1 to 10 | > 30 | > 30 | 0.01 to 100 | 100 to 1000
4 | Cc1cccnc1C1CCCN1Cc1nc2ccccn2c1N1CCN(C)CC1 (stereo not shown) [Compound I-40] | 0.1 to 10 | > 30 | 10 to 30 | 0.01 to 100 | 0.01 to 100
5 | CN1CCN(c2c(CN3CCCC3c3ccccn3)nc3cccc(F)n23)CC1 (stereo not shown) [Compound I-64] | 0.1 to 10 | 10 to 30 | 0.1 to 10 | 0.01 to 100 | 100 to 1000
6 | Cc1cccnc1C1CCCN1Cc1nc2cccc(N3CCN4CCCC4C3)c2[nH]1 (stereo not shown) [Compound I-48] | 0.1 to 10 | 10 to 30 | 0.1 to 10 | 0.01 to 100 | 0.01 to 100
7 | CN1CCN(c2cccc3nc(C4CCCN4Cc4ncccn4)[nH]c23)CC1 (stereo not shown) [Compound I-105] | 0.1 to 10 | > 30 | 0.1 to 10 | ≥ 1000 | ≥ 1000
8 | Cc1cccnc1C1CCCN1Cc1nccn1C1CCN(C)CC1 (stereo not shown) [Compound I-36] | 0.1 to 10 | > 30 | 0.1 to 10 | 100 to 1000 | ≥ 1000
9 | Cc1cccnc1C1CCCN1Cc1nc2cccc(N3CCN(C)C4(CC4)C3)c2[nH]1 (stereo not shown) [Compound I-28] | 0.1 to 10 | 10 to 30 | 0.1 to 10 | 100 to 1000 | 100 to 1000
10 | Cc1c(CN2CCCC2c2ncccc2Cl)nc2cccc(N3CCN(C)CC3)n12 (stereo not shown) [Compound I-47] | 0.1 to 10 | 10 to 30 | 0.1 to 10 | 0.01 to 100 | 100 to 1000
11 | c1ccc(C2CCCN2Cc2nc3ccccn3c2-c2ccncc2)nc1 (stereo not shown) [Compound I-80] | 10 to 30 | > 30 | 0.1 to 10 | 100 to 1000 | 100 to 1000
12 | FC(F)(F)CN1CCN(c2c(CN3CCCC3c3ccccn3)nc3ccccn23)CC1 (stereo not shown) [Compound I-98] | > 30 | > 30 | 0.1 to 10 | 0.01 to 100 | 100 to 1000
13 | Cc1cccnc1C1CCCN1Cc1nccn1CC1CCN(CC(F)(F)F)CC1 (stereo not shown) [Compound I-106] | 10 to 30 | > 30 | 0.1 to 10 | 100 to 1000 | ≥ 1000
14 | Cc1cccnc1C1CCCN1Cc1nc2cccc(N3CCN(C)CC3)c2s1 (stereo not shown) [Compound I-37] | 10 to 30 | 10 to 30 | 0.1 to 10 | 100 to 1000 | ≥ 1000
15 | CN1CCC(Cn2ccnc2CN2CCCC2c2ccccn2)CC1 (stereo not shown) [Compound I-112] | 0.1 to 10 | 10 to 30 | > 30 | 0.01 to 100 | 100 to 1000
16 | c1ccc(OCc2c(CN3CCCC3c3ccccn3)nc3ccccn23)nc1 (stereo not shown) [Compound I-94] | 10 to 30 | > 30 | 0.1 to 10 | ≥ 1000 | ≥ 1000
17 | Cc1cccnc1C1CCCN1Cc1ncccc1N1CCN(C)CC1 (stereo not shown) [Compound I-53] | 0.1 to 10 | 10 to 30 | 0.1 to 10 | 0.01 to 100 | ≥ 1000
18 | CN1CCN(c2cccc3nc(CN4CCCC4c4ncc[nH]4)cn23)CC1 (stereo not shown) [Compound I-50] | 0.1 to 10 | 10 to 30 | 0.1 to 10 | ≥ 1000 | ≥ 1000
19 | c1ccc(C2CCCN2Cc2nc3ccccn3c2N2CCN(C3CC3)CC2)nc1 (stereo not shown) [Compound I-57] | 10 to 30 | 10 to 30 | 0.1 to 10 | 0.01 to 100 | 100 to 1000
20 | Cc1cccnc1C1CCCN1Cc1nc2cccc(N3CCN(C)CC3)n2c1F (stereo not shown) [Compound I-34] | 0.1 to 10 | 10 to 30 | 0.1 to 10 | 100 to 1000 | 100 to 1000
